From patent publication US6914045B2, “Glycopeptide antibiotics” (Wyeth Holdings Corporation, priority 2001, dated 2005)
Converted amounts (≈) assume the structure as drawn.

Legend:
Assay in all cases: in vitro antibacterial evaluation, MIC by broth dilution
Assay type in all cases: cell-based
Enterococcus sp. = details: broth dilution, 18 hours at 35° C.
Summary of the method: (§1)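 Read-out: the lowest concentration at which the test strain fails to grow. Serial dilutions (64-0.06 μg/mL) in Muller-Hinton II […], 5×10^5 CFU/mL inoculum, NCCLS M7-A2 procedure.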

Escherichia coli = tested on: Escherichia coli
Summary of the method: as §1

Staphylococcus sp. = details: broth dilution, 18 hours at 35° C.; for MIC Staphylococcus aureus (GC 1131): strain GC 1131
Summary of the method: as §1

Streptococcus sp. = details: broth dilution, 18 hours at 35° C.
Summary of the method: as §1

MIC Enterococcus avium (GC 4558) (Enterococcus sp.; Enterococcus avium (GC 4558)): 1 µg/mL (≈ 0.698 µM) | MIC Enterococcus faecalis (ATCC 29212) (Enterococcus sp.; Enterococcus faecalis (ATCC 29212)): 1 µg/mL (≈ 0.698 µM) | MIC Enterococcus faecalis (GC 2242) (Enterococcus sp.; Enterococcus faecalis (GC 2242)): <0.5 µg/mL | MIC Enterococcus faecalis (GC 2691) (Enterococcus sp.; Enterococcus faecalis (GC 2691)): 1 µg/mL (≈ 0.698 µM) | MIC Enterococcus faecalis (GC 3059) (Enterococcus sp.; Enterococcus faecalis (GC 3059)): 1 µg/mL (≈ 0.698 µM) | MIC Enterococcus faecalis (GC 4552) (Enterococcus sp.; Enterococcus faecalis (GC 4552)): 1 µg/mL (≈ 0.698 µM) | MIC Enterococcus faecalis (GC 4553) (Enterococcus sp.; Enterococcus faecalis (GC 4553)): 2 µg/mL (≈ 1.4 µM) | MIC Enterococcus faecalis (GC 4554) (Enterococcus sp.; Enterococcus faecalis (GC 4554)): 1 µg/mL (≈ 0.698 µM) | MIC Enterococcus faecalis (GC 6189) (Enterococcus sp.; Enterococcus faecalis (GC 6189)): 1 µg/mL (≈ 0.698 µM) | MIC Enterococcus faecium (GC 2243) (Enterococcus sp.; Enterococcus faecium (GC 2243)): 1 µg/mL (≈ 0.698 µM) | MIC Enterococcus faecium (GC 4556) (Enterococcus sp.; Enterococcus faecium (GC 4556)): 1 µg/mL (≈ 0.698 µM) | MIC Enterococcus faecium (GC 4557) (Enterococcus sp.; Enterococcus faecium (GC 4557)): 1 µg/mL (≈ 0.698 µM) | MIC Enterococcus faecalis (ATCC 29212) (Enterococcus sp.; strain ATCC 29212): 1 µg/mL (≈ 0.698 µM) | MIC Enterococcus faecalis (GC 2242) (Enterococcus sp.; strain GC 2242): <0.5 µg/mL | MIC Enterococcus faecium (GC 2243) (Enterococcus sp.; strain GC 2243): 1 µg/mL (≈ 0.698 µM) | MIC Enterococcus faecalis (GC 2691) (Enterococcus sp.; strain GC 2691): 1 µg/mL (≈ 0.698 µM) | MIC Enterococcus faecalis (GC 3059) (Enterococcus sp.; strain GC 3059): 1 µg/mL (≈ 0.698 µM) | MIC Enterococcus faecalis (GC 4552) (Enterococcus sp.; strain GC 4552): 1 µg/mL (≈ 0.698 µM) | MIC Enterococcus faecalis (GC 4553) (Enterococcus sp.; strain GC 4553): 2 µg/mL (≈ 1.4 µM) | MIC Enterococcus faecalis (GC 4554) (Enterococcus sp.; strain GC 4554): 1 µg/mL (≈ 0.698 µM) | MIC Enterococcus faecium (GC 4556) (Enterococcus sp.; strain GC 4556): 1 µg/mL (≈ 0.698 µM) | MIC Enterococcus faecium (GC 4557) (Enterococcus sp.; strain GC 4557): 1 µg/mL (≈ 0.698 µM) | MIC Enterococcus avium (GC 4558) (Enterococcus sp.; strain GC 4558): 1 µg/mL (≈ 0.698 µM) | MIC Enterococcus faecalis (GC 6189) (Enterococcus sp.; strain GC 6189): 1 µg/mL (≈ 0.698 µM) | MIC Escherichia coli (ATCC 25922) (Escherichia coli; strain ATCC 25922, 18 hours at 35° C.): 64 µg/mL (≈ 44.6 µM) | MIC Escherichia coli (GC 4559) (Escherichia coli; strain GC 4559, 18 hours at 35° C.): 32 µg/mL (≈ 22.3 µM) | MIC Escherichia coli (GC 4560) (Escherichia coli; strain GC 4560, 18 hours at 35° C.): <0.5 µg/mL | MIC Staphylococcus aureus (GC 1131) (Staphylococcus sp.; inoculum 5×10^5 CFU/mL): <0.5 µg/mL | MIC Staphylococcus aureus (ATCC 29213) (Staphylococcus sp.; strain ATCC 29213): 1 µg/mL (≈ 0.698 µM) | MIC Staphylococcus aureus (GC 1131) (Staphylococcus sp.): <0.5 µg/mL | MIC Staphylococcus aureus (GC 3051) (Staphylococcus sp.; strain GC 3051): 1 µg/mL (≈ 0.698 µM) | MIC Staphylococcus aureus (GC 3053) (Staphylococcus sp.; strain GC 3053): 1 µg/mL (≈ 0.698 µM) | MIC Staphylococcus aureus (GC 4541) (Staphylococcus sp.; strain GC 4541): <0.5 µg/mL | MIC Staphylococcus aureus (GC 4542) (Staphylococcus sp.; strain GC 4542): <0.5 µg/mL | MIC Staphylococcus aureus-SMITH (GC 4543) (Staphylococcus sp.; strain GC 4543): <0.5 µg/mL | MIC Staphylococcus aureus (GC 4544) (Staphylococcus sp.; strain GC 4544): 1 µg/mL (≈ 0.698 µM) | MIC Staphylococcus aureus (GC 4545) (Staphylococcus sp.; strain GC 4545): 1 µg/mL (≈ 0.698 µM) | MIC Coagulase Negative Staphylococcus (GC 4547) (Staphylococcus sp.; strain GC 4547): 1 µg/mL (≈ 0.698 µM) | MIC Coagulase Negative Staphylococcus (GC 4548) (Staphylococcus sp.; strain GC 4548): <0.5 µg/mL | MIC Coagulase Negative Staphylococcus (GC 4549) (Staphylococcus sp.; strain GC 4549): 1 µg/mL (≈ 0.698 µM) | MIC Coagulase Negative Staphylococcus (GC 4551) (Staphylococcus sp.; strain GC 4551): <0.5 µg/mL | MIC Coagulase Negative Staphylococcus (GC 6257) (Staphylococcus sp.; strain GC 6257): 0.5 µg/mL (≈ 0.349 µM) | MIC Staphylococcus aureus-SMITH (GC 4543) (Staphylococcus sp.; strain SMITH GC 4543): <0.5 µg/mL | MIC Streptococcus agalactiae (GC 4564) (Streptococcus sp.; Streptococcus agalactiae (GC 4564)): <0.5 µg/mL | MIC Streptococcus pneumoniae (ATCC 6301) (Streptococcus sp.; Streptococcus pneumoniae (ATCC 6301)): <0.5 µg/mL | MIC Streptococcus pneumoniae (GC 1894) (Streptococcus sp.; Streptococcus pneumoniae (GC 1894)): <0.5 µg/mL | MIC Streptococcus pneumoniae (GC 4565) (Streptococcus sp.; Streptococcus pneumoniae (GC 4565)): <0.5 µg/mL | MIC Streptococcus pyogenes (GC 4563) (Streptococcus sp.; Streptococcus pyogenes (GC 4563)): 1 µg/mL (≈ 0.698 µM) | MIC Streptococcus pneumoniae (ATCC 6301) (Streptococcus sp.; strain ATCC 6301): <0.5 µg/mL | MIC Streptococcus pneumoniae (GC 1894) (Streptococcus sp.; strain GC 1894): <0.5 µg/mL | MIC Streptococcus pyogenes (GC 4563) (Streptococcus sp.; strain GC 4563): 1 µg/mL (≈ 0.698 µM) | MIC Streptococcus agalactiae (GC 4564) (Streptococcus sp.; strain GC 4564): <0.5 µg/mL | MIC Streptococcus pneumoniae (GC 4565) (Streptococcus sp.; strain GC 4565): <0.5 µg/mL
SMILES: CC(c1ccccc1)C1NC(=O)CNC(=O)C(CO)NC(=O)C(C(O)C2CNC(=N)N2C2OC(CO)C(O)C(O)C2O)NC(=O)C(C(O)C2CNC(=N)N2)NC(=O)C(Cc2ccc(OC3OC(CO)C(OC4OC5COC(c6ccc7ccccc7c6)OC5C(O)C4O)C(O)C3O)cc2)NC1=O (stereo not drawn) [Example 145]
MIC Staphylococcus haemolyticus (GC 4546) (Staphylococcus sp.; strain GC 4546): <0.5 µg/mL
